Active and inactive are the calls of the source. The rule behind the calls is not given here.
What was measured:
[1] = target: T7 RNA polymerase (Enterobacteria phage T7) (UniProt P00573); assay: (§1) Inhibition of T7 RNA polymerase assessed as reduction in RNA product formation using double stranded DNA as substrate after 4 hrs in presence of NTPs by sybrGOLD staining based fluorescence assay (reference value: 100%); conditions: Escherichia phage T7
T7 RNA polymerase = T7 RNA polymerase (Enterobacteria phage T7, UniProt P00573); assay: as §1; design: species or system Escherichia phage T7
T7 RNA polymerase, sequence (P00573 whole entry): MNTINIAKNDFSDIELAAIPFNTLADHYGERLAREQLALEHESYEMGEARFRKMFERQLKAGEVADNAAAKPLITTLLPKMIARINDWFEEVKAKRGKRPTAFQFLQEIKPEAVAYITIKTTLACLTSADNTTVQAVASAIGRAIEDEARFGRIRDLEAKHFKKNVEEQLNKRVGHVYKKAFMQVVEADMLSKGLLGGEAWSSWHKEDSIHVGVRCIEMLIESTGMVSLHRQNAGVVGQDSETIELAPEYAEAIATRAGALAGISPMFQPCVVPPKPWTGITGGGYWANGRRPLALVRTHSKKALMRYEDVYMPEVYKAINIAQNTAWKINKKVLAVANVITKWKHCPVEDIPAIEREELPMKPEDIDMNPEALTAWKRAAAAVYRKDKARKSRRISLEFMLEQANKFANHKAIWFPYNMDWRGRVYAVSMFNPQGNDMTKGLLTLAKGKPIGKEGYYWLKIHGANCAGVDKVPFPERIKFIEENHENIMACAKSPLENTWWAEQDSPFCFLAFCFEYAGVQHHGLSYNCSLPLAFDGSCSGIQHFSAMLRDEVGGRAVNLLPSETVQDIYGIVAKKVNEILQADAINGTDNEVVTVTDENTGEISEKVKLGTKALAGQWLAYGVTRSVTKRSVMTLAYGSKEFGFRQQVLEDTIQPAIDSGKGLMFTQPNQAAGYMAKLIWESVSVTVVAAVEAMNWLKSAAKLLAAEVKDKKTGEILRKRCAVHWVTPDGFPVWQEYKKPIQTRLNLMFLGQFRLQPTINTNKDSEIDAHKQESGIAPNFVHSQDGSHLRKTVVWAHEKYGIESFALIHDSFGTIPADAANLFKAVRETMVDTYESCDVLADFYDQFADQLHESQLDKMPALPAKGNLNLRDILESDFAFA

[2] = target: T7 RNA polymerase (Enterobacteria phage T7) (UniProt P00573); assay: Inhibition of T7 RNA polymerase assessed as RNA product formation at 2 mM using double stranded DNA as substrate incubated in presence of UV irradiation for 1 sec followed by enzyme addition measured after 4 hrs in presence of NTPs by sybrGOLD staining based fluorescence assay relative to control; design: scale not given: the % may be the effect or the level left; conditions: Escherichia phage T7
[3] = target: T7 RNA polymerase (Enterobacteria phage T7) (UniProt P00573); assay: Inhibition of T7 RNA polymerase assessed as RNA product formation at 2 mM using double stranded DNA as substrate after 4 hrs in presence of NTPs by sybrGOLD staining based fluorescence assay (reference value: 100%); design: scale not given: the % may be the effect or the level left; conditions: Escherichia phage T7
[4] = target: T7 RNA polymerase (Enterobacteria phage T7) (UniProt P00573); assay: (§2) Inhibition of T7 RNA polymerase assessed as RNA product formation at 2 mM using double stranded DNA as substrate incubated in presence of UV irradiation for 5 secs followed by enzyme addition measured after 4 hrs in presence of NTPs by sybrGOLD staining based fluorescence assay relative to control; design: scale not given: the % may be the effect or the level left; conditions: Escherichia phage T7
[5] = target: T7 RNA polymerase (Enterobacteria phage T7) (UniProt P00573); assay: Inhibition of T7 RNA polymerase assessed as reduction in RNA product formation at 2 mM using double stranded DNA as substrate incubated in absence of UV irradiation followed by enzyme addition measured after 4 hrs in presence of NTPs by sybrGOLD staining based fluorescence assay relative to control; conditions: Escherichia phage T7
[6] = target: T7 RNA polymerase (Enterobacteria phage T7) (UniProt P00573); assay: as §2, with “assessed as reduction in RNA product” for “assessed as RNA product”, “irradiation for 60 secs followed” for “irradiation for 5 secs followed”; design: scale not given: the % may be the effect or the level left; conditions: Escherichia phage T7
[7] = target: T7 RNA polymerase (Enterobacteria phage T7) (UniProt P00573); assay: as §2, with “assessed as reduction in RNA product” for “assessed as RNA product”, “irradiation for 40 secs followed” for “irradiation for 5 secs followed”; design: scale not given: the % may be the effect or the level left; conditions: Escherichia phage T7
[8] = target: T7 RNA polymerase (Enterobacteria phage T7) (UniProt P00573); assay: Inhibition of T7 RNA polymerase assessed as RNA product formation at 0.2 mM using double stranded DNA as substrate after 4 hrs in presence of NTPs by sybrGOLD staining based fluorescence assay (reference value: 100%); design: scale not given: the % may be the effect or the level left; conditions: Escherichia phage T7
[9] = target: T7 RNA polymerase (Enterobacteria phage T7) (UniProt P00573); assay: Inhibition of T7 RNA polymerase assessed as RNA product formation at 5 mM using double stranded DNA as substrate after 4 hrs in presence of NTPs by sybrGOLD staining based fluorescence assay (reference value: 100%); design: scale not given: the % may be the effect or the level left; conditions: Escherichia phage T7
[10] = target: T7 RNA polymerase (Enterobacteria phage T7) (UniProt P00573); assay: Inhibition of T7 RNA polymerase assessed as RNA product formation at 2 mM using double stranded DNA as substrate incubated in presence of UV irradiation for 20 secs followed by enzyme addition measured after 4 hrs in presence of NTPs by sybrGOLD staining based fluorescence assay relative to control; design: scale not given: the % may be the effect or the level left; conditions: Escherichia phage T7
[11] = target: T7 RNA polymerase (Enterobacteria phage T7) (UniProt P00573); assay: Inhibition of T7 RNA polymerase assessed as RNA product formation at 1 mM using double stranded DNA as substrate after 4 hrs in presence of NTPs by sybrGOLD staining based fluorescence assay (reference value: 100%); design: scale not given: the % may be the effect or the level left; conditions: Escherichia phage T7
[12] = target: T7 RNA polymerase (Enterobacteria phage T7) (UniProt P00573); assay: Inhibition of T7 RNA polymerase assessed as RNA product formation at 2 mM using double stranded DNA as substrate incubated in presence of UV irradiation for 10 secs followed by enzyme addition measured after 4 hrs in presence of NTPs by sybrGOLD staining based fluorescence assay relative to controll; design: scale not given: the % may be the effect or the level left; conditions: Escherichia phage T7
[13] = target: T7 RNA polymerase (Enterobacteria phage T7) (UniProt P00573); assay: Inhibition of T7 RNA polymerase assessed as RNA product formation at 10 mM using double stranded DNA as substrate after 4 hrs in presence of NTPs by sybrGOLD staining based fluorescence assay (reference value: 100%); design: scale not given: the % may be the effect or the level left; conditions: Escherichia phage T7
[14] = target: T7 RNA polymerase (Enterobacteria phage T7) (UniProt P00573); assay: Inhibition of T7 RNA polymerase assessed as RNA product formation at 0.5 mM using double stranded DNA as substrate after 4 hrs in presence of ATP/UTP/CTP by sybrGOLD staining based fluorescence assay (reference value: 100%); design: scale not given: the % may be the effect or the level left; conditions: Escherichia phage T7
[15] = target: T7 RNA polymerase (Enterobacteria phage T7) (UniProt P00573); assay: Inhibition of T7 RNA polymerase assessed as reduction in RNA product formation at 2 mM using double stranded DNA as substrate after 4 hrs in absence of NTPs by sybrGOLD staining based fluorescence assay (reference value: 100%); conditions: Escherichia phage T7

T7 RNA polymerase (Enterobacteria phage T7), sequence (P00573 whole entry): as above

Row | Compound | inhibition [1] | IC50 (T7 RNA polymerase) [mM] | Activity [2] [%] | Activity [3] [%] | Activity [4] [%] | inhibition [5] | Activity [6] [%] | Activity [7] [%] | Activity [8] [%] | Activity [9] [%] | Activity [10] [%] | Activity [11] [%] | Activity [12] [%] | Activity [13] [%] | Activity [14] [%] | inhibition [15]
1 | O=c1nc(OCc2ccccc2[N+](=O)[O-])ccn1[C@@H]1O[C@H](COP(=O)(O)OP(=O)(O)OP(=O)(O)O)[C@@H](O)[C@H]1O | Dose-dependent effect | 5 | 67 | 63 to 70 | 81 | Active | 60 | 66 | 94 | 39 | 70 | 73 | 72 | 8 | 84 | 
2 | Nc1nc(OCc2ccccc2[N+](=O)[O-])c2ncn([C@@H]3O[C@H](COP(=O)(O)OP(=O)(O)OP(=O)(O)O)[C@@H](O)[C@H]3O)c2n1 | Dose-dependent effect | 5 | 4 | 60 to 64 | 41 | Active | 62 | 64 | 89 | 47 | 62 | 87 | 53 | 13 | 89 | Active
